For this experiment, the target named is BcRtt109-GST (Botrytis cinerea, UniProt A0A384J919). Kind of experiment: in vitro acetylation of BcTol1-His6, immunoblot with anti-K122ac. It is filed as biochemical. To be noted: 0.2 mM acetyl-CoA; acceptor BcTol1-His6; 50 mM Tris-HCl pH 8.0, 37 °C, 1 h.
Chain of BcRtt109-GST (A0A384J919 entry or part of it): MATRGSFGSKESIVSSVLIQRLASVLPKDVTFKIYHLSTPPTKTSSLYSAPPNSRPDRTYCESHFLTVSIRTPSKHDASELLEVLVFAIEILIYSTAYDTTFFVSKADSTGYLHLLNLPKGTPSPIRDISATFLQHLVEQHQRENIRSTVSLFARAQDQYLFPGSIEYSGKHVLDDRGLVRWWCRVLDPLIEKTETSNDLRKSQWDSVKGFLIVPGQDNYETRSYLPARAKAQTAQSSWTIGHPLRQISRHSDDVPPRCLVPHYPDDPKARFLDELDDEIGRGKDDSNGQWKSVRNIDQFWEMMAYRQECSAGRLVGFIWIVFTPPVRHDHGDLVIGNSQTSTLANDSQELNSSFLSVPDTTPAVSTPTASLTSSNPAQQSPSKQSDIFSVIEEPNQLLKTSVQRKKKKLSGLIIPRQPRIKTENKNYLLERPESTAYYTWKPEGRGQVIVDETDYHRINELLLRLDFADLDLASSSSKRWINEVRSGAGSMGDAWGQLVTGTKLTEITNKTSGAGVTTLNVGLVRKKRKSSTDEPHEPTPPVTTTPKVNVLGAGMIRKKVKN

With `CC(=O)SCCNC(=O)CCNC(=O)[C@H](O)C(C)(C)COP(=O)(O)OP(=O)(O)OC[C@H]1O[C@@H](n2cnc3c(N)ncnc32)[C@H](O)[C@@H]1OP(=O)(O)O` [acetyl-CoA], the “in vitro acetylation of BcTol1-His6, immunoblot with anti-K122ac” value is listed as “purified BcRtt109-GST, but not GST itself, acetylates WT BcTol1 effectively in vitro”.

Values taken from publication PMC7613639, “Broad-spectrum chemicals block ROS detoxification to prevent plant fungal invasion” (Current biology : CB, 2022).
